PubChem BioAssay AID488966 (Southern Research Specialized Biocontainment Screening …, 2010)

System: E. coli UTI89 K1F phage lysis, alamar blue, 2 h
Assay: protection from phage-mediated lysis, alamar blue read-out – E. coli UTI89, K1F phage, bacterial capsule biogenesis inhibitors (AID 488966);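 further: capsule biogenesis inhibitors block K1F phage lysis so surviving cells raise fluorescence; higher fluorescence means more inhibition of phage lysis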

| Structure (SMILES) | IC50 |
| --- | --- |
| CCN(CC)c1ccc2c(-c3ccc(S(=O)(=O)O)cc3S(=O)(=O)[O-])c3ccc(=[N+](CC)CC)cc-3oc2c1 | 30.6 µM |
| NC(N)=N/N=C/c1ccc(OCc2ccccc2)cc1 | 60.8 µM |
| Cc1cc(C)c(NC(=O)C[N+](C)(C)CC(O)COc2cccc3ccccc23)c(C)c1 (stereo not given) | 82.2 µM |
| O=C(NCc1cc([N+](=O)[O-])ccc1O)c1cccnc1Sc1ccccc1 | 128 µM |
| Cc1ccc(C2c3c(oc4cc(C)c(C)cc4c3=O)C(=O)N2CCCN2CCOCC2)cc1 (stereo not given) | 228 µM |
| COc1ccc2nc(NC(=O)c3ccc(Br)s3)sc2c1 | 59.7 µM |
| CCN(CC)CCCNc1nc2ccccc2c2[nH]c3ccc(OC)cc3c12 | 86.6 µM |
| Cc1cccc(C)c1NC(=O)C[N+](C)(C)CC(O)COc1cccc2ccccc12 (stereo not given) | 91 µM |
| N=C(N)SCCc1cccc(CCSC(=N)N)c1 | 114 µM |
| N=c1n(CCN2CCCC2)c2ccccc2n1CC(O)c1ccc(Cl)c(Cl)c1 (stereo not given) | 140 µM |
| O=C(ONc1ccc(N=NC(=O)c2ccccc2O)cc1)c1ccccc1 | 72.7 µM |
| O=C1c2c(O)ccc(O)c2C(=O)c2c(NCCNCCO)ccc(NCCNCCO)c21 | 211 µM |
| O=C(Nc1cccc(C2=NCCN2)c1)Nc1cccc(C2=NCCN2)c1 | 251 µM |
| N=C(N)c1ccc(/C=C/c2ccc(C(=N)N)cc2O)cc1 | 11.1 µM |
| C=CCOc1ccc(C2c3c(oc4ccccc4c3=O)C(=O)N2CCCN2CCOCC2)cc1 (stereo not given) | 200 µM |
| CCC1=NN2C(=N)/C(=C\c3ccc(SCc4ccco4)o3)C(=O)N=C2S1 | 68.7 µM |
| COc1cc(/C=N/N=C(N)N)ccc1OCc1ccccc1Cl | 56.4 µM |
| CCN(CCCl)c1cc(CN(C)C)cc(NC(=O)c2ccc(C(=O)Nc3cc(CN(C)C)cc(N(CC)CCCl)c3)cc2)c1 | 118 µM |
| O=C(COc1ccc(Cl)cc1Cl)Nc1ccc(C(=O)Nc2ccccc2C(=O)O)cc1 | 74.6 µM |
| O=C(NCc1cc([N+](=O)[O-])ccc1O)c1cccnc1Sc1ccccc1Cl | 175 µM |
| Cc1ccccc1NC(=NCCCN1CC1)Nc1ccccc1C | 286 µM |
| O=C(Nc1ccncc1)c1ccc2ncsc2c1 | 123 µM |
| CC1(C(=O)O)CCC(C(=O)Nc2ccc3ccccc3c2)C1(C)C (stereo not given) | 178 µM |
| O=C1C2(Cl)C3(Cl)C4(Cl)C(Cl)(Cl)C5(Cl)C3(Cl)C1(Cl)C5(Cl)C24Cl (stereo not given) | 74.8 µM |
| CCCOc1ccc(C(=O)C(CCC(CNCC)C(=O)c2ccc(OCCC)cc2)CNCC)cc1 (stereo not given) | 132 µM |
